Measurements as given in patent US10597388B2, “Pyridazinone herbicides” (FMC CORPORATION, priority 2014, dated 2020).

Experiments:
Assay type in all cases: in vivo
[1] = tested on: crabgrass, large (large crabgrass, Digitaria sanguinalis); test: Test C greenhouse herbicide test, pre- and postemergence; settings: for Plant response rating, Crabgrass, Large: Postemergence
Method in brief: (§1)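 Preemergence: seeds sown in a loam soil–sand blend and sprayed with test chemicals in a non-phytotoxic solvent mixture containing surfactant. Postemergence: plants grown in peat-based medium and treated at 2 to 18 cm (1- to 4-leaf stage). After 13 to 15 d in a greenhouse, injury was visually rated 0–100 against controls.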

[2] = tested on: johnsongrass (Sorghum halepense); test: as above; settings: for Plant response rating, Johnsongrass: Postemergence
Method in brief: as §1

[3] = tested on: morningglory (Ipomoea coccinea); test: as above; settings: for Plant response rating, Morningglory: Postemergence
Method in brief: as §1

[4] = tested on: nutsedge, yellow (yellow nutsedge, Cyperus esculentus); test: as above; settings: for Plant response rating, Nutsedge, Yellow: Postemergence
Method in brief: as §1

[5] = tested on: wheat (winter wheat, Triticum aestivum); test: as above; settings: for Plant response rating, Wheat: Postemergence
Method in brief: as §1

[6] = tested on: velvetleaf (Abutilon theophrasti); test: as above; settings: for Plant response rating, Velvetleaf: Postemergence
Method in brief: as §1

[7] = tested on: oilseed rape (Brassica napus); test: as above; settings: for Plant response rating, Oilseed Rape: Postemergence
Method in brief: as §1

corn (Zea mays) = test: as above
Method in brief: as §1

[8] = tested on: barnyardgrass (Echinochloa crus-galli); test: as above
Method in brief: as §1

[9] = tested on: pigweed (Amaranthus retroflexus); test: as above; settings: for Plant response rating, Pigweed: Postemergence
Method in brief: as §1

[10] = tested on: foxtail, giant (giant foxtail, Setaria faberii); test: as above; settings: for Plant response rating, Foxtail, Giant: Postemergence
Method in brief: as §1

[11] = tested on: lambsquarters (Chenopodium album); test: as above; settings: for Plant response rating, Lambsquarters: Postemergence
Method in brief: as §1

[12] = tested on: blackgrass (Alopecurus myosuroides); test: as above
Method in brief: as §1

[13] = tested on: waterhemp (common waterhemp, Amaranthus rudis); test: as above; settings: for Plant response rating, Waterhemp: Postemergence
Method in brief: as §1

[14] = tested on: oat, wild (wild oat, Avena fatua); test: Test C greenhouse herbicide test, postemergence; settings: for Plant response rating, Oat, Wild: Postemergence
Method in brief: (§2)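 Test chemicals were applied postemergence to greenhouse plants at the 1- to 4-leaf stage (2–18 cm tall) growing in peat/vermiculite medium. After 13–15 d, injury was rated visually against untreated controls on a 0–100 scale (0 = no effect, 100 = complete control).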

kochia (Kochia scoparia) = test: Test C greenhouse herbicide test, postemergence; settings: for Plant response rating, Kochia: Postemergence
Method in brief: as §2

[15] = 125 g ai/ha, scale 0 to 100, 0 is no effect, 100 is complete control
[16] = 250 g ai/ha, scale 0 to 100, 0 no effect, 100 complete control, 13 to 15 d
[17] = postemergence, 62 g ai/ha, scale 0 to 100, 0 no effect, 100 complete control
[18] = Postemergence, 31 g ai/ha, 0 to 100 scale (0 no effect, 100 complete control)
[19] = Postemergence, 125 g ai/ha, scale 0 to 100, 0 is no effect, 100 is complete control
[20] = Postemergence, 250 g ai/ha, scale 0 to 100, 0 no effect, 100 complete control, 13 to 15 d

COc1nn(C)c(=O)c(-c2c(C)sc3ccc(Cl)cc23)c1O [Compound 100]
Plant response rating, Crabgrass, Large [1, 15]: 25 | Plant response rating, Crabgrass, Large [1, 16]: 15 | Crabgrass, Large plant response rating [1, 17]: 15 | Plant response rating, Johnsongrass [2, 15]: 5 | Plant response rating, Johnsongrass [2, 16]: 10 | Johnsongrass plant response rating [2, 17]: 0 | Plant response rating, Morningglory [3, 15]: 100 | Plant response rating, Morningglory [3, 16]: 100 | Morningglory plant response rating [3, 17]: 100 | Plant response rating, Nutsedge, Yellow [4, 15]: 20 | Plant response rating, Nutsedge, Yellow [4, 16]: 50 | Nutsedge, Yellow plant response rating [4, 17]: 25 | Plant response rating, Wheat [5, 15]: 0 | Plant response rating, Wheat [5, 16]: 5 | Wheat plant response rating [5, 17]: 0 | Plant response rating, Velvetleaf [6, 15]: 40 | Plant response rating, Velvetleaf [6, 16]: 65 | Velvetleaf plant response rating [6, 17]: 50 | Plant response rating, Oilseed Rape [7, 15]: 10 | Plant response rating, Oilseed Rape [7, 16]: 90 | Oilseed Rape plant response rating [7, 17]: 60 | Corn plant response rating (corn (Zea mays); [18]): 5 | Plant response rating, Corn (corn (Zea mays); [19]): 5 | Plant response rating, Corn (corn (Zea mays); [20]): 10 | Corn plant response rating (corn (Zea mays); [17]): 10 | Barnyardgrass plant response rating [8, 18]: 10 | Plant response rating, Barnyardgrass [8, 19]: 30 | Plant response rating, Barnyardgrass [8, 20]: 40 | Barnyardgrass plant response rating [8, 17]: 25 | Plant response rating, Pigweed [9, 15]: 100 | Plant response rating, Pigweed [9, 16]: 100 | Pigweed plant response rating [9, 17]: 85 | Plant response rating, Foxtail, Giant [10, 15]: 75 | Plant response rating, Foxtail, Giant [10, 16]: 90 | Foxtail, Giant plant response rating [10, 17]: 45 | Plant response rating, Lambsquarters [11, 15]: 98 | Plant response rating, Lambsquarters [11, 16]: 98 | Lambsquarters plant response rating [11, 17]: 90 | Blackgrass plant response rating [12, 18]: 5 | Plant response rating, Blackgrass [12, 19]: 5 | Plant response rating, Blackgrass [12, 20]: 25 | Blackgrass plant response rating [12, 17]: 5 | Plant response rating, Waterhemp [13, 15]: 95 | Plant response rating, Waterhemp [13, 16]: 98 | Waterhemp plant response rating [13, 17]: 90 | Plant response rating, Oat, Wild [14, 15]: 85 | Plant response rating, Oat, Wild [14, 16]: 95 | Oat, Wild plant response rating [14, 17]: 70 | Plant response rating, Kochia (kochia (Kochia scoparia); [15]): 95 | Plant response rating, Kochia (kochia (Kochia scoparia); [16]): 95 | Kochia plant response rating (kochia (Kochia scoparia); [17]): 90
